The text below walks through data of ChEMBL document CHEMBL3872247, “Discovery of dual positive allosteric modulators (PAMs) of the metabotropic glutamate 2 receptor and CysLT1 antagonists for treating migraine headache” (Bioorg Med Chem Lett, 2017).

In the first data set the target is T1, Cysteinyl leukotriene receptor 1 (Homo sapiens, UniProt Q9Y271).
T1 sequence (Q9Y271 whole entry): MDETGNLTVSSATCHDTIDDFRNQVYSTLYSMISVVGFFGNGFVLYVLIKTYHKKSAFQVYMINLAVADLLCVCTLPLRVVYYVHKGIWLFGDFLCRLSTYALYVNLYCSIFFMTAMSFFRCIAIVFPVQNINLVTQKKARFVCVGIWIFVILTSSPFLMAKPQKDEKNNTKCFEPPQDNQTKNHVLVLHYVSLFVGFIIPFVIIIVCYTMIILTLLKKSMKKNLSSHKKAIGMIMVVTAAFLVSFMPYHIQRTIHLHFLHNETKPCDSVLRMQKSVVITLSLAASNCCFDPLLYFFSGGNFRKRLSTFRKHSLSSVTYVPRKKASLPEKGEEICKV
The data set can be described thus: Antagonist activity at human CysLT1 receptor expressed in Syrian hamster AV12-664 cells assessed as decrease in LTD4-induced intracellular calcium level pretreated followed by LTD4 addition by fluo-3 dye based FLIPR assay. Type of data set: functional, cell-based.
Details: not given
In general terms: Calcium flux is commonly read through the fluorescence of an indicator in the cells.
Usually IC50 stands for the concentration that inhibits the measured activity by half. On to `CCCc1c(OCc2ccc(Oc3cc(-c4nn[nH]n4)ccn3)cc2)ccc(C(C)=O)c1O`, for which the IC50 came out at 200 nM.

`CCCc1c(OCc2ccc(Oc3ccc(-c4nn[nH]n4)cn3)cc2)ccc(C(C)=O)c1O`: the IC50 turned out to be 346 nM.

On to `CCCc1c(OCc2ccc(Oc3ncccc3-c3nn[nH]n3)cc2)ccc(C(C)=O)c1O`, for which the half-maximal inhibitory concentration (IC50) was 330 nM.

For `CCCc1c(OCc2cccc(Oc3ncccc3-c3nn[nH]n3)c2)ccc(C(C)=O)c1O`, the IC50 was found to be 390 nM.

`CCCc1c(OCc2ccc(Oc3ccc(C(=O)O)cn3)cc2)ccc(C(C)=O)c1O`: the IC50 turned out to be 132 nM.

Turning to `CC(=O)c1ccc(OCc2cccc(Oc3ccc(-c4nn[nH]n4)cn3)c2)c(F)c1O`, the IC50 was determined as 1500 nM.

Take `CC(=O)c1ccc(OCc2cccc(Oc3ccc(-c4nn[nH]n4)cn3)c2)c(Cl)c1O`: the IC50 stood at 475 nM.

As for `CC(=O)c1ccc(OCc2ccc(Oc3cccc(-c4nn[nH]n4)c3)cc2)c(C)c1O`, the IC50 was 1430 nM.

Take `CCCc1c(OCc2cccc(Oc3cc(C(=O)O)ccn3)c2)ccc(C(C)=O)c1O`: the IC50 worked out at 73.6 nM.

As to `CC(=O)c1ccc(OCc2cccc(Oc3ccc(-c4nn[nH]n4)cn3)c2)c(C(F)(F)F)c1O`, the IC50 was determined as 144 nM.

Turning to `CCCc1c(OCc2cccc(Oc3cc(-c4nn[nH]n4)ccn3)c2)ccc(C(C)=O)c1O`, the half-inhibitory concentration (IC50) amounted to 62.4 nM.

As for `CCCc1c(OCc2cccc(Oc3ccc(-c4nn[nH]n4)cn3)c2)ccc(C(C)=O)c1O`, the IC50 worked out at 203 nM.

`CCCc1c(OCc2ccc(Oc3cccc(-c4nn[nH]n4)c3)nc2)ccc(C(C)=O)c1O`: the IC50 came to 484 nM.

As to `CC(=O)c1ccc(OCc2cccc(Oc3cc(-c4nn[nH]n4)ccn3)c2)c(Cl)c1O`, the IC50 was 342 nM.

As for `CC(=O)c1ccc(OCc2cccc(Oc3cc(-c4nn[nH]n4)ccn3)c2)c(C(F)(F)F)c1O`, the IC50 was determined as 112 nM.

Test system in another data set: not listed separately
Nature of the data set: Tmax in rat at 1 mg/kg, po. The data set is classed as ADME, organism-based. To be noted: in vivo.
The term Tmax denotes the time at which the peak concentration occurs. With `CC(=O)c1ccc(OCc2ccc(Oc3cccc(-c4nn[nH]n4)c3)cc2)c(C)c1O`, the Tmax is 42 min.

`CC(=O)c1ccc(OCc2cccc(Oc3cc(-c4nn[nH]n4)ccn3)c2)c(C(F)(F)F)c1O`: the Tmax was 24 min.

Test system in another data set: not listed separately
The data set can be described thus: Ratio of Cmax in rat to EC50 for human mGlu2 receptor expressed in hamster AV12 cells expressing EAAT1.
Details: not given
Regarding `CC(=O)c1ccc(OCc2ccc(Oc3cccc(-c4nn[nH]n4)c3)cc2)c(C)c1O`, the Ratio amounted to 3.08.

Take `CC(=O)c1ccc(OCc2cccc(Oc3cc(-c4nn[nH]n4)ccn3)c2)c(C(F)(F)F)c1O`: the Ratio is reported as 8.52.

The next data set deals with T2, Metabotropic glutamate receptor 2 (Homo sapiens, UniProt Q14416). Nature of the data set: Positive allosteric modulation of recombinant human mGlu2 receptor expressed in hamster AV12 cells expressing EAAT1 assessed as potentiation of glutamate-induced intracellular calcium level measured after 24 to 48 hrs by FLIPR assay relative to glutamate.
Details: not given
Type of data set: functional, cell-based.
Target sequence in this assay (Q14416 19-872 limits assumed): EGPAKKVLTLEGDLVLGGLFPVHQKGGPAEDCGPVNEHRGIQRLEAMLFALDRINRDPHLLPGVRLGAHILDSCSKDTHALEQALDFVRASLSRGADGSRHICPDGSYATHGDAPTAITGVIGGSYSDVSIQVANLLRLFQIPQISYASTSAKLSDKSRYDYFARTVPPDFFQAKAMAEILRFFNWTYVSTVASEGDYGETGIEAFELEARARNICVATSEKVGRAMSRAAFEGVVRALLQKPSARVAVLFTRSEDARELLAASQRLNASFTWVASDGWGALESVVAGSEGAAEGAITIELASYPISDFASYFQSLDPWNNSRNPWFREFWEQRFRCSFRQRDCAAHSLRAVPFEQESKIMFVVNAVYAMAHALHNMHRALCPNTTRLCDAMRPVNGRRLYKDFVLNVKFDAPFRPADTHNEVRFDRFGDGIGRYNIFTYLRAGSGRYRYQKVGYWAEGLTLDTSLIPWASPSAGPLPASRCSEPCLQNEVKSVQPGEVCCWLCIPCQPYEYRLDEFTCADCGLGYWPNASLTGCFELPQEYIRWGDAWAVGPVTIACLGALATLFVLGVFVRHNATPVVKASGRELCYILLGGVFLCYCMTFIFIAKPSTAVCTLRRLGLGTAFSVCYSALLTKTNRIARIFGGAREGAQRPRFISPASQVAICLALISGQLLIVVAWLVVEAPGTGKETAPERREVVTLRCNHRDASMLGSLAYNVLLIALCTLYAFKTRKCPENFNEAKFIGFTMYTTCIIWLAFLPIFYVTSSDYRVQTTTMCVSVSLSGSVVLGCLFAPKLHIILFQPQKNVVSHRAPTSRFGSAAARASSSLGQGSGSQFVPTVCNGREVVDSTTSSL
One may read the Emax as the greatest response seen or fitted, relative to the assay's reference. For the compound `CCCc1c(OCc2ccc(Oc3cc(-c4nn[nH]n4)ccn3)cc2)ccc(C(C)=O)c1O`, the Emax was 88 to 89%.

Take `CCCc1c(OCc2ccc(Oc3ccc(-c4nn[nH]n4)cn3)cc2)ccc(C(C)=O)c1O`: the Emax was 94%.

As to `CCCc1c(OCc2ccc(Oc3ncccc3-c3nn[nH]n3)cc2)ccc(C(C)=O)c1O`, the Emax came to 87%.

With `CCCc1c(OCc2cccc(Oc3ncccc3-c3nn[nH]n3)c2)ccc(C(C)=O)c1O`, the Emax came to 85%.

In the case of `CCCc1c(OCc2ccc(Oc3ccc(C(=O)O)cn3)cc2)ccc(C(C)=O)c1O`, the Emax came to 96%.

Turning to `CC(=O)c1ccc(OCc2cccc(Oc3ccc(-c4nn[nH]n4)cn3)c2)c(F)c1O`, the maximal effect (Emax) amounted to 91%.

For `CC(=O)c1ccc(OCc2cccc(Oc3ccc(-c4nn[nH]n4)cn3)c2)c(Cl)c1O`, the maximal response (Emax) worked out at 90%.

As for `CC(=O)c1ccc(OCc2ccc(Oc3cccc(-c4nn[nH]n4)c3)cc2)c(C)c1O`, the maximum response (Emax) was found to be 85%.

Consider `CCCc1c(OCc2cccc(Oc3cc(C(=O)O)ccn3)c2)ccc(C(C)=O)c1O`, for which the maximum response (Emax) is 91%.

For the compound `CC(=O)c1ccc(OCc2cccc(Oc3ccc(-c4nn[nH]n4)cn3)c2)c(C(F)(F)F)c1O`, the maximal response (Emax) is 85%.

`CCCc1c(OCc2cccc(Oc3cc(-c4nn[nH]n4)ccn3)c2)ccc(C(C)=O)c1O`: the Emax lay within 90 to 96%.

Consider `CCCc1c(OCc2cccc(Oc3ccc(-c4nn[nH]n4)cn3)c2)ccc(C(C)=O)c1O`, for which the Emax was determined as 80%.

In the case of `CCCc1c(OCc2ccc(Oc3cccc(-c4nn[nH]n4)c3)nc2)ccc(C(C)=O)c1O`, the maximal response (Emax) was 74%.

For `CC(=O)c1ccc(OCc2cccc(Oc3cc(-c4nn[nH]n4)ccn3)c2)c(Cl)c1O`, the maximal response (Emax) came out at 101%.

For the compound `CC(=O)c1ccc(OCc2cccc(Oc3cc(-c4nn[nH]n4)ccn3)c2)c(C(F)(F)F)c1O`, the maximum response (Emax) came to 81%.

Test system in another data set: not listed separately
The data set can be described thus: Cmax in rat at 1 mg/kg, po. Type of data set: ADME, organism-based. Further details: dose 1 mg/kg, route oral. To be noted: in vivo.
Usually Cmax stands for the highest concentration seen after dosing. In turn, `CC(=O)c1ccc(OCc2ccc(Oc3cccc(-c4nn[nH]n4)c3)cc2)c(C)c1O` came in with a Cmax of 430 ng/mL.

On to `CC(=O)c1ccc(OCc2cccc(Oc3cc(-c4nn[nH]n4)ccn3)c2)c(C(F)(F)F)c1O`, for which the Cmax came to 24.1 ng/mL.

Test system in another data set: not listed separately
The data set can be described thus: Ratio of Cmax in rat to EC50 for human CysLT1 expressed in Syrian hamster AV12-664 cells.
Details: not given
Consider `CC(=O)c1ccc(OCc2ccc(Oc3cccc(-c4nn[nH]n4)c3)cc2)c(C)c1O`, for which the Ratio worked out at 0.73.

With `CC(=O)c1ccc(OCc2cccc(Oc3cc(-c4nn[nH]n4)ccn3)c2)c(C(F)(F)F)c1O`, the Ratio is listed as 0.46.

For the next data set, the system named is Rattus norvegicus. Nature of the data set: Decrease in plasma protein extravasation in fasted Harlan Sprague-Dawley rat model of migraine compound administered via oral gavage 1 hr prior to electrical stimulation of trigeminal ganglion measured after 15 mins by FITC-BSA based fluorescence assay. The data set is classed as functional.
Details: not given
On to `CNS(=O)(=O)Cc1ccc2[nH]cc(CCN(C)C)c2c1` [SUMATRIPTAN], for which the ID100 stood at 1000 µg/kg.

Regarding `CC(=O)c1ccc(OCc2ccc(Oc3cccc(-c4nn[nH]n4)c3)cc2)c(C)c1O`, the Activity result was “Dose-dependent effect” and the ID100 came out at 100 µg/kg.

Turning to `CC(=O)c1ccc(OCc2cccc(Oc3cc(-c4nn[nH]n4)ccn3)c2)c(C(F)(F)F)c1O`, the Activity result was “Dose-dependent effect” and the ID100 turned out to be 10 µg/kg.

Test system in another data set: not listed separately
Nature of the data set: Oral bioavailability in rat at 1 mg/kg. Type of data set: ADME, organism-based. To be noted: in vivo.
In general, bioavailability refers to the share of a dose that reaches the circulation, judged against a reference dose that is usually intravenous. With `CC(=O)c1ccc(OCc2ccc(Oc3cccc(-c4nn[nH]n4)c3)cc2)c(C)c1O`, the bioavailability turned out to be 88%.

Consider `CC(=O)c1ccc(OCc2cccc(Oc3cc(-c4nn[nH]n4)ccn3)c2)c(C(F)(F)F)c1O`, for which the bioavailability was determined as 38%.

For a further data set, the target named is T2, Metabotropic glutamate receptor 2. Nature of the data set: Positive allosteric modulation of recombinant human mGlu2 receptor expressed in hamster AV12 cells expressing EAAT1 assessed as potentiation of glutamate-induced intracellular calcium level measured after 24 to 48 hrs by FLIPR assay. Type of data set: functional, cell-based.
Details: not given
Target sequence in this assay (Q14416 whole entry): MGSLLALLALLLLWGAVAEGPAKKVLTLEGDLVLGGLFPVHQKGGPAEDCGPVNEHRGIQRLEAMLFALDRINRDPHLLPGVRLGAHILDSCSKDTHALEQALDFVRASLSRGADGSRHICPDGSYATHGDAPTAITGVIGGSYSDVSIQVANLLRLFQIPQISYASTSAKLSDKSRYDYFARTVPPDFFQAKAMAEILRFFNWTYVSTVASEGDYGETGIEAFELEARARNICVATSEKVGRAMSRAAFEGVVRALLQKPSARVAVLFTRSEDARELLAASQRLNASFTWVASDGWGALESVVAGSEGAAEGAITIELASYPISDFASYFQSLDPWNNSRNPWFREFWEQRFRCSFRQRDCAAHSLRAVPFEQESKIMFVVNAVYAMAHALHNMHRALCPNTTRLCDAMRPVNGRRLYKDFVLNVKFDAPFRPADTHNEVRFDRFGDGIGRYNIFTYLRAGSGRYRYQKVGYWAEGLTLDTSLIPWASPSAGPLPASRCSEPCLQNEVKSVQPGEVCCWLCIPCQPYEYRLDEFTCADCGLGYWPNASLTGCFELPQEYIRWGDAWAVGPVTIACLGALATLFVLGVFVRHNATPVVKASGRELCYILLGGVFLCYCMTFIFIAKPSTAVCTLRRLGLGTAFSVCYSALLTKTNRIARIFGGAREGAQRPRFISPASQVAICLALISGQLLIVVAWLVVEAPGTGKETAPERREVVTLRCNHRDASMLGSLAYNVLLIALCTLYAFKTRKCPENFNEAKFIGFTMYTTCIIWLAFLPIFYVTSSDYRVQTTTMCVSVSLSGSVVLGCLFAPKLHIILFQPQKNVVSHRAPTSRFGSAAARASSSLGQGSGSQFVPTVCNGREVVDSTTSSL
Usually EC50 stands for the midpoint of the concentration-response curve. For `CCCc1c(OCc2ccc(Oc3cc(-c4nn[nH]n4)ccn3)cc2)ccc(C(C)=O)c1O`, the EC50 was 470 nM.

For `CCCc1c(OCc2ccc(Oc3ccc(-c4nn[nH]n4)cn3)cc2)ccc(C(C)=O)c1O`, the EC50 was found to be 682 nM.

For `CCCc1c(OCc2ccc(Oc3ncccc3-c3nn[nH]n3)cc2)ccc(C(C)=O)c1O`, the EC50 is 310 nM.

For the compound `CCCc1c(OCc2cccc(Oc3ncccc3-c3nn[nH]n3)c2)ccc(C(C)=O)c1O`, the half-maximal effective concentration (EC50) amounted to 227 nM.

Turning to `CCCc1c(OCc2ccc(Oc3ccc(C(=O)O)cn3)cc2)ccc(C(C)=O)c1O`, the EC50 came out at 1430 nM.

As for `CC(=O)c1ccc(OCc2cccc(Oc3ccc(-c4nn[nH]n4)cn3)c2)c(F)c1O`, the EC50 is 1080 nM.

In the case of `CC(=O)c1ccc(OCc2cccc(Oc3ccc(-c4nn[nH]n4)cn3)c2)c(Cl)c1O`, the EC50 turned out to be 39.3 nM.

Regarding `CC(=O)c1ccc(OCc2ccc(Oc3cccc(-c4nn[nH]n4)c3)cc2)c(C)c1O`, the EC50 was 293 to 336 nM.

Consider `CCCc1c(OCc2cccc(Oc3cc(C(=O)O)ccn3)c2)ccc(C(C)=O)c1O`, for which the EC50 is 404 nM.

Turning to `CC(=O)c1ccc(OCc2cccc(Oc3ccc(-c4nn[nH]n4)cn3)c2)c(C(F)(F)F)c1O`, the EC50 was found to be 17.9 nM.

As to `CCCc1c(OCc2cccc(Oc3cc(-c4nn[nH]n4)ccn3)c2)ccc(C(C)=O)c1O`, the EC50 stood at 110 nM.

On to `CCCc1c(OCc2cccc(Oc3ccc(-c4nn[nH]n4)cn3)c2)ccc(C(C)=O)c1O`, for which the EC50 came out at 319 nM.

For the compound `CCCc1c(OCc2ccc(Oc3cccc(-c4nn[nH]n4)c3)nc2)ccc(C(C)=O)c1O`, the EC50 came out at 562 nM.

Consider `CC(=O)c1ccc(OCc2cccc(Oc3cc(-c4nn[nH]n4)ccn3)c2)c(Cl)c1O`, for which the EC50 was 87.4 nM.

On to `CC(=O)c1ccc(OCc2cccc(Oc3cc(-c4nn[nH]n4)ccn3)c2)c(C(F)(F)F)c1O`, for which the EC50 fell in the range of 6 to 6.4 nM.
